PMC4683533, “Discovery of novel INK4C small-molecule inhibitors to promote human and murine hematopoietic stem cell ex vivo expansion” (Scientific Reports, 2015)

How the values were obtained:
HSCs (CD34−LKS cells) = assay: single hematopoietic stem cell in vitro culture (nmEM colony) assay; format: cell-based, mouse; settings: 12.5 nM, 14-day treatment
Procedure: We biologically assessed the 22 putative p18SMI compounds for their ability to maintain HSCs stem cell characteristics, to be specific self-renewal and multi-lineage differentiation, using single cell cultures. […] Thus, we employed single HSC culture to assess p18SMI compounds’ effect upon HSCs. CD34^−LKS cells from C57BL/6 mice were individually deposited into a 96-well plate (one cell/well). The single cell was cultured for 14 days in 100 μL of serum-free medium (Gibco) containing 100 ng/mL of mouse stem cell factor (SCF), 10 ng/mL of mouse interleukin-3 (IL-3), 25 ng/mL of human thrombopoietin (TPO), 2 U/mL of human erythropoietin (EPO) and differing concentrations of the p18SMI compound. Cells were cultured 14 days for in vitro colony formation and colonies were then cytospined and analyzed by flow cytometry to test the subpopulation of cultured cells. Neutrophils (n), macrophages (m), erythroblasts (E) or megakaryocytes (M) were identified by the cell marker of Gr-1, Mac-1, Ter-119 and CD41 using flow cytometry. The wells from each group that generated all lineages (nmEM) were counted and the ratio to the control group (DMSO) was calculated.
Single CD34^-LKS cells from C57BL/6 mice were individually deposited into each well of a 96-well plate along with 100 μL of serum free medium (Gibco) containing 100 ng/mL of mouse SCF, 10 ng/mL of mouse IL-3, 25 ng/mL of human TPO, 2 U/mL of human EPO and p18SMI compounds (different dilutions). Cells were cultured in a 37 °C, 5% CO2 incubator for 14 days for ex vivo colony formation. Colonies were then cytospined and analyzed using flow cytometry. Neutrophils (n), macrophages (m), erythroblasts (E) or megakaryocytes (M) were identified based on their cell surface maker, Gr-1, Mac-1, Ter119 and CD41. Cells were measured on an FACS analyzer (FACSArray, BD Biosciences). […] The wells from each group that generated all lineages (nmEM) were counted. The ratio of p18SMI compound treatment group to the control group (DMSO-treated) was calculated and fitted to a curve to calculate the ED50 value using GraphPad Prism v6.0.

[1] = system: c-Kit-enriched BM cells (progenitor cells, HSPCs, LT-HSCs); assay: CFSE cell division assay; format: cell-based, mouse; settings: LT-HSC
Description: We have previously shown that deficiency of p18 may enhance HSCs expansion by inducing primitive phenotypes after each cell division in vivo[19]. To obtain direct evidence that compound 40 promotes primitive phenotypes after each cell division, we measured cell divisions in distinct immunophenotypically-defined populations of cells treated with p18SMI compound. 5- (and 6-) carboxy-fluorescein diacetatesuccinimidylester (CFSE) dye was used to label the c-Kit-enriched BM cells before culture. Surface markers for progenitor cells, HSPCs and LT-HSCs were used to co-stain the BM cells that were harvested 5 days after treatment with the p18SMI compound. The number of initial cell divisions was measured based on the intensity of CFSE in each cell population. Consistent with previous phenotype results, little effect on the progenitor cells and HSPCs populations was observed (Fig. 5A).
Prior to culture, cKit-enriched BM cells (1 × 10^6/mL) were labeled with 5- (and 6-) carboxy-fluorescein diacetatesuccinimidylester (CFSE) dye (3 μM, Molecular Probes) in PBS supplemented with 0.1% bovine serum albumin. Labeling was performed in the dark at 37 °C for 10 min. […] During cell division, CFSE is distributed equally between daughter cells so that the generation of cells could be reflected by the content of CFSE and measured by the intensity of fluorescence. […]

MM.1S = assay: MTT proliferation assay on myeloma cell line; format: cell-based
Description: (§1) With confirmation of compound 40 promoting the expansion of HSCs, we further examined whether it might also increase the risk of malignant diseases. In order to determine the effect of compound 40 on hematological tumorigenesis, proliferation of both leukemia cell lines (KG-1 and KG-1a) and myeloma cell lines (MM.1S and RPMI 8226) was further investigated by a standard MTT assay.
(§2) To evaluate the toxicity of our top compounds, we performed a cell proliferation assay using 32D cells as well as leukemia cell lines and myeloma cell lines. Weihi-3 cells were cultured at 37 °C under 5% CO2 in RPMI 1640 medium supplemented with 10%FBS. After 48 h, the supernatant was collected and filtered. 32D cells were cultured in RPMI 1640 with 10% FBS and 10% supernatant collected from Weihi-3 cells. 8,000 32D cells or leukemia cell line (KG-1 or KG-1a) or myeloma cell line (MM.1S or RPMI 8226) were plated in a 96-well plate in 198 μL culture media per well, and then cultured (37 °C, 5% CO2) overnight. 2 μL of serially diluted compounds dissolved in saline or DMSO were added to each well and incubated (37 °C, 5% CO2) for 72 h. The concentration of DMSO was equal to the one in corresponding compound group. 20 μL of MTT solution was added to each well and then incubated (37 °C, 5% CO2) for 4 h. The percentage of cell survival was determined using the MTT assay, as previously described. The data was analyzed using GraphPad Prism v6.0.
(§3) (1 picture or pasted object on this page, not shown here)

RPMI 8226 = assay: MTT proliferation assay on myeloma cell line; format: cell-based
Description: as §1, §2, §3

With `O=C([O-])c1ccc(S(=O)(=O)NC2CCCCC2)cc1.[Na+]` [Compound 40, sodium 4-(N-cyclohexylsulfamoyl)benzoate] the “increase of nmEM colonies as compared to the control group” value (HSCs (CD34−LKS cells)) was 3.16 fold, the “% Divided” value [1] was 65.2% and the “enhancement of proliferation (MTT)” value (MM.1S; 5 μM) was “did not enhance”. The “effect on myeloma cell line” value (MM.1S; high concentration (20 μM)) was “no effect”, the “enhancement of proliferation (MTT)” value (RPMI 8226; 5 μM) was “did not enhance” and the “effect on myeloma cell line” value (RPMI 8226; high concentration (20 μM)) was “no effect”.
